Reference: patent US10828331B2, “Cellular compositions used to restore stem cell or progenitor cell function and methods related thereto” (Emory University, priority 2012, dated 2020)

Columns and labels:
diabetic MSCs = assay: real-time RT-PCR of angiogenic genes in compound-treated diabetic MSCs; assay type: cell-based, rat; details: D-MSCs treated with epigenetic compounds for 7 days, FIG. 1
Method: To reprogram diabetic MSCs with epigenetic compounds, cultured D-MSCs were treated with HDAC inhibitor: Vorinostat or suberoylanilide hydroxamic acid (SAHA); DNA methyltransferase inhibitor: Decitabine (trade name Dacogen), or 5-aza-2′-deoxycytidine (5-aza); multiple histone 3 lysine 9 (H3K9) methyltransferases G9a and GLP inhibitor: BIX-01294; and GSK3β inhibitor: CHIR99021 for 7 more days. N-MSCs and D-MSCs were cultured by a standard MSC culture method. The cultured MSCs are typically reseeded at day 4 and cultured for another 4 days. To examine the expression levels of angiogenic genes, we isolated RNAs from N-, D-, or epigenetic compound treated reprogrammed D-MSCs (RD-MSCs), and performed real-time RT-PCR with specific primers of angiogenic genes.
Diabetes was induced in 8 week-old male Fischer 344 rats by intravenous injection of streptozotocin ([…]). Blood glucose levels were measured using an Accu-Check glucometer (Roche, Indianapolis, Ind.) after one week and two months. […]
Gene expression was determined by TaqMan® real-time quantitative PCR on the 7300 Sequence Detection System (Applied Biosystems) using TaqMan® PCR Master Mix (Applied Biosystems). […] Relative mRNA expression of target gene normalized to GAPDH was calculated by using the formula Relative Expression Level=2−ΔCt, where ΔCt=Ct gene of interest−Ct GAPDH. […]

[1] = tested on: mouse neural progenitors and mouse embryonic fibroblasts; details: in combination with two factors (Oct4 and Klf4); cited from earlier work

For O=C(CCCCCCC(=O)Nc1ccccc1)NO [SAHA, suberoylanilide hydroxamic acid], the “expression of major angiogenic genes” value (diabetic MSCs) was “significant increased pattern in most of genes”.
For COc1cc2nc(N3CCCN(C)CC3)nc(NC3CCN(Cc4ccccc4)CC3)c2cc1OC [BIX01294], the reprogramming efficiency [1] is given as “enhanced the reprogramming efficiency”.
In the case of COC(=O)C1=C(C)NC(C)=C([N+](=O)[O-])C1c1ccccc1C(F)(F)F (stereo not drawn) [BayK8644, 1,4-dihydro-2,6-dimethyl-5-nitro-4-[2-(trifluoromethyl)phenyl]-3-pyridinecarboxylic acid, methyl ester], the reprogramming efficiency [1] is listed as “enhanced the reprogramming efficiency”.
